According to ChEMBL document CHEMBL1122489, “Pyrimidine derivatives. 4. Synthesis and antihypertensive activity of 4-amino-2-(4-cinnamoylpiperazino)-6,7-dimethoxyquinazoline derivatives” (J Med Chem, 1983):

Tests used:
Format in all cases: functional
Rattus norvegicus [1] = experiment: Antihypertensive activity rating in conscious SHR after 1 hr post dose at 3 mg/kg (po)
Rattus norvegicus [2] = experiment: Antihypertensive activity rating in conscious SHR after 24 hr post dose at 0.3 mg/kg (po)
Rattus norvegicus [3] = experiment: Antihypertensive activity rating in conscious SHR after 24 hr post dose at 3 mg/kg (po)
Rattus norvegicus [4] = experiment: Antihypertensive activity rating in conscious SHR after 3 hr post dose at 0.3 mg/kg (po)
Rattus norvegicus [5] = experiment: Antihypertensive activity rating in conscious SHR after 3 hr post dose at 1 mg/kg (po)
Rattus norvegicus [6] = experiment: Antihypertensive activity rating in conscious SHR after 3 h post dose at 3 mg/kg (po)
Rattus norvegicus [7] = experiment: Antihypertensive activity rating in conscious SHR after 6 hr post dose at 0.3 mg/kg (po)
Rattus norvegicus [8] = experiment: Antihypertensive activity rating in conscious SHR after 6 hr post dose at 1 mg/kg (po)
Rattus norvegicus [9] = experiment: Antihypertensive activity rating in conscious SHR after 6 hr post dose at 3 mg/kg (po)
Rattus norvegicus [10] = experiment: Antihypertensive activity rating in conscious SHR after 1 hr post dose at 0.3 mg/kg (po)
Rattus norvegicus [11] = experiment: Antihypertensive activity rating in conscious SHR after 1 hr post dose at 1 mg/kg (po)
Rattus norvegicus [12] = experiment: Maximum percent decrease in blood pressure in SHR dosed at 1 mg/kg (hour post dose in parentheses)
Rattus norvegicus [13] = experiment: Maximum percent decrease in blood pressure in SHR dosed at 0.3 mg/kg (hour post dose in parentheses)
Rattus norvegicus [14] = experiment: Maximum percent decrease in blood pressure in SHR dosed at 3 mg/kg (hour post dose in parentheses)
Rattus norvegicus [15] = experiment: Effect on blood pressure (initial) in renal hypertensive rats dosed at 10 mg/kg
Rattus norvegicus [16] = experiment: Effect on blood pressure in renal hypertensive rats dosed at 10 mg/kg after 3 h
Rattus norvegicus [17] = experiment: Effect on blood pressure in renal hypertensive rats dosed at 10 mg/kg after 6 h
Rattus norvegicus [18] = experiment: Effect on blood pressure in renal hypertensive rats dosed at 3 mg/kg after 1 h
Rattus norvegicus [19] = experiment: Effect on blood pressure in renal hypertensive rats dosed at 3 mg/kg after 12 h
Rattus norvegicus [20] = experiment: Effect on blood pressure in renal hypertensive rats dosed at 3 mg/kg after 24 h
Rattus norvegicus [21] = experiment: Effect on blood pressure in renal hypertensive rats dosed at 3 mg/kg after 6 h
Rattus norvegicus [22] = experiment: Effect on mean blood pressure (initial) in renal hypertensive rats dosed at 3 mg/kg
Rattus norvegicus [23] = species: Rattus norvegicus; experiment: Compound was tested for alpha-adrenoceptor blocking activity by its ability to antagonize norepinephrine contraction in the rat thoracic aorta; conditions: read-out: pA2 (converted)
Rattus norvegicus [24] = experiment: Effect on blood pressure in renal hypertensive rats dosed at 10 mg/kg after 1 h
Rattus norvegicus [25] = experiment: Effect on blood pressure in renal hypertensive rats dosed at 10 mg/kg after 12 h
Rattus norvegicus [26] = experiment: Effect on blood pressure in renal hypertensive rats dosed at 10 mg/kg after 24 h
[27] = Potency ratio in rat thoracic aorta
Rattus norvegicus [28] = experiment: Antihypertensive activity rating in conscious SHR after 24 hr post dose at 1 mg/kg (po)
Rattus norvegicus [29] = experiment: Effect on blood pressure in renal hypertensive rats dosed at 3 mg/kg after 3 h
Rattus norvegicus [30] = experiment: Effect on blood pressure in renal hypertensive rats dosed at 10mg/kg, po after 1 h
Rattus norvegicus [31] = experiment: Effect on blood pressure in renal hypertensive rats dosed at 10 mg/kg, po after 24 h
Rattus norvegicus [32] = experiment: Effect on blood pressure in renal hypertensive rats dosed at 10 mg/kg, po after 3 h
Rattus norvegicus [33] = experiment: Effect on blood pressure in renal hypertensive rats dosed at 10mg/kg, po after 6 h
Rattus norvegicus [34] = experiment: Effect on blood pressure in renal hypertensive rats dosed at 3 mg/kg, po after 1 h
Rattus norvegicus [35] = experiment: Effect on blood pressure in renal hypertensive rats dosed at 3 mg/kg, po after 24 h
Rattus norvegicus [36] = experiment: Effect on blood pressure in renal hypertensive rats dosed at 3 mg/kg, po after 3 h
Rattus norvegicus [37] = experiment: Effect on blood pressure in renal hypertensive rats dosed at 3 mg/kg, po after 6 h
Rattus norvegicus [38] = experiment: Effect on mean blood pressure (initial) in renal hypertensive rats dosed at 3 mg/kg, po
Rattus norvegicus [39] = experiment: Effect on blood pressure (initial) in renal hypertensive rats dosed at 10mg/kg, po

| SMILES | Activity (Rattus norvegicus [1]) | Activity (Rattus norvegicus [2]) | Activity (Rattus norvegicus [3]) | Activity (Rattus norvegicus [4]) | Activity (Rattus norvegicus [5]) | Activity (Rattus norvegicus [6]) | Activity (Rattus norvegicus [7]) | Activity (Rattus norvegicus [8]) | Activity (Rattus norvegicus [9]) | Activity (Rattus norvegicus [10]) | Activity (Rattus norvegicus [11]) | Decrease (Rattus norvegicus [12]) [%] | Decrease (Rattus norvegicus [13]) [%] | Decrease (Rattus norvegicus [14]) [%] | Mean blood pressure (Rattus norvegicus [15]) [mmHg] | Mean blood pressure (Rattus norvegicus [16]) [mmHg] | Mean blood pressure (Rattus norvegicus [17]) [mmHg] | Kb (Rattus norvegicus [23]) [nM] | Ratio [27] | Activity (Rattus norvegicus [28]) | other results |
| --- | --- | --- | --- | --- | --- | --- | --- | --- | --- | --- | --- | --- | --- | --- | --- | --- | --- | --- | --- | --- | --- |
| CCOc1ccc(/C=C/C(=O)N2CCN(c3nc(N)c4cc(OC)c(OC)cc4n3)CC2)cc1 | 0 | 1 | 0 | 0 | 1 | 1 | 0 | 2 | 2 | 0 | 0 | 21 | 13 | 24 | 204 | -16.3 | -19.1 | 2.19 | 0.02 | 0 | Mean blood pressure (Rattus norvegicus [18]): -4 mmHg; Mean blood pressure (Rattus norvegicus [19]): -10.6 mmHg; Mean blood pressure (Rattus norvegicus [20]): -2.6 mmHg; Mean blood pressure (Rattus norvegicus [21]): -14.5 mmHg; Mean blood pressure (Rattus norvegicus [22]): 203 mmHg; Mean blood pressure (Rattus norvegicus [24]): -6.2 mmHg; Mean blood pressure (Rattus norvegicus [25]): -15.5 mmHg; Mean blood pressure (Rattus norvegicus [26]): -10.4 mmHg; Mean blood pressure (Rattus norvegicus [29]): -11.7 mmHg |
| COc1cc2nc(N3CCN(C(=O)c4ccco4)CC3)nc(N)c2cc1OC.Cl [PRAZOSIN HYDROCHLORIDE] | 2 | 0 | 0 | 1 | 2 | 1 | 1 | 1 | 1 | 1 | 2 | 25 | 19 | 27 |  |  |  | 0.0513 | 1 | 0 | Mean blood pressure (Rattus norvegicus [30]): -25.6 mmHg; Mean blood pressure (Rattus norvegicus [31]): -8.9 mmHg; Mean blood pressure (Rattus norvegicus [32]): -17.6 mmHg; Mean blood pressure (Rattus norvegicus [33]): -14.7 mmHg; Mean blood pressure (Rattus norvegicus [34]): -17.9 mmHg; Mean blood pressure (Rattus norvegicus [35]): -3.3 mmHg; Mean blood pressure (Rattus norvegicus [36]): -15.5 mmHg; Mean blood pressure (Rattus norvegicus [37]): -14.5 mmHg; Mean blood pressure (Rattus norvegicus [38]): 197 mmHg; Mean blood pressure (Rattus norvegicus [39]): 187 mmHg |
| COc1cc2nc(N3CCN(C(=O)/C=C/c4ccco4)CC3)nc(N)c2cc1OC.Cl | 3 | 0 | 0 | 1 | 1 | 2 | 1 | 2 | 2 | 1 | 2 | 28 | 15 | 41 | 181 | -16.3 | -17.4 | 0.141 | 0.4 | 0 | Mean blood pressure (Rattus norvegicus [18]): -17.1 mmHg; Mean blood pressure (Rattus norvegicus [20]): -5.2 mmHg; Mean blood pressure (Rattus norvegicus [21]): -18.3 mmHg; Mean blood pressure (Rattus norvegicus [22]): 193 mmHg; Mean blood pressure (Rattus norvegicus [24]): -17.9 mmHg; Mean blood pressure (Rattus norvegicus [26]): -11.7 mmHg; Mean blood pressure (Rattus norvegicus [29]): -16.9 mmHg |
| COc1cc2nc(N3CCN(C(=O)/C=C/c4ccccc4)CC3)nc(N)c2cc1OC | 2 | 0 | 0 | 0 | 1 | 1 | 1 | 1 | 1 | 0 | 1 | 14 | 10 | 22 | 199 | -14.1 | -15.9 | 0.724 | 0.07 | 0 | Mean blood pressure (Rattus norvegicus [18]): -3.7 mmHg; Mean blood pressure (Rattus norvegicus [20]): -0.1 mmHg; Mean blood pressure (Rattus norvegicus [21]): -7.2 mmHg; Mean blood pressure (Rattus norvegicus [22]): 195 mmHg; Mean blood pressure (Rattus norvegicus [24]): -12.6 mmHg; Mean blood pressure (Rattus norvegicus [26]): -14.1 mmHg; Mean blood pressure (Rattus norvegicus [29]): -6.8 mmHg |
